Experimental data from patent publication US20080033026A1, “Antimicrobial compositions, methods and systems” (priority 2006, published 2008).

Experiments:
Assay in all cases: Time-kill determination
Format in all cases: cell-based
[1] = system: Candida albicans (ATCC 10231)
Protocol: (§1) The assessment of efficacy of 9-decenoic acid against a spectrum of microorganisms was determined using the American Society for Testing and Materials (ASTM) procedure entitled “Standard Test Method for the Assessment of Microbiocidal Activity of Test Materials Using a Time-Kill Procedure,” October 1998. This procedure incorporates the recommendations described in the “Manual of Clinical Microbiology,” 5th ed., edited by A. B. Balows et al., ASM, Washington, and is directed by the Federal Register, June 1994.
(§2) Challenge organisms were prepared as follows. Cultures of the following organisms were obtained: Staphylococcus aureus (ATCC 6538), Pseudomonas aeruginosa (ATCC 15442), Staphylococcus epidermidis (ATCC 12228), Klebsiella pneumoniae (ATCC 4352), Escherichia coli 0157:H7 (ATCC 43895) and Candida albicans (ATCC 10231). The stock cultures were transferred to sterile tubes and sterile tryptic soy broth (TSB) was added to the cultures. The mixture was incubated for 18-24 hours at 37° C. (±2° C.). A portion of this culture was then transferred onto TSA plates and incubated for 18-24 hours at 37° C. (±2° C.). The plates were removed from incubation and the bacterial growth was washed from the agar surface using Butterfield's Phosphate Buffered Dilution Water (PBDW).
(§3) The bacterial suspension was adjusted to contain approximately 10^8 Colony Forming Units (CFU) per ml with PBDW. The concentration was adjusted to an optical density (OD) of 0.4-0.5 (versus a PBDW blank) at 620 nm in a UV-Vis spectrophotometer, and this optical density gave approximately 10^8 colony forming units per milliliter (cfu/ml). The standardized suspension was stored under appropriate conditions until it was used as the challenge inoculum.
(§4) Concentrated 9-decenoic acid (97%) was diluted in filter sterilized isopropanol to yield a 25,000 ppm stock solution. Subsequent dilutions to the 9-decenoic acid stock solutions were made with sterile Deionized Water (DI) to achieve concentrations of 0.1%, 0.05%, 0.01% and 0.001%. The pH was determined for each dilution; pH values ranged from 4.4-4.1. Additionally, 9-decenoic acid stock solution was adjusted to pH 7 with 1 N NaOH and serially diluted with sterile DI to achieve concentrations of 1%, 0.5%, 0.2%, 0.1%, 0.05% and 0.0025%. In addition, 9-decenoic acid stock solution was combined with Triclosan™ (obtained from Ciba Specialty Chemical Corporation, under the tradename Irgasan DP 300™) in various ratios, as indicated in Table 8. The pH of the combined solution was 7.
(§5) Compliant with the ASTM procedure cited, for each challenge microorganism a 9.9 ml aliquot of the prepared 9-decenoic acid suspension was added to a sterile tube. A 0.1 ml aliquot of the standardized inoculum was added to the 9-decenoic acid solution representing the start of the test exposure. The inoculated 9-decenoic acid solution was immediately mixed thoroughly. The inoculated suspension was held at room temperature for 0.5, 2, 5, 7 and 10-minute exposure times for tests run at pH level of approximately 4. The pH 7 tests were held at room temperature for 0.5 and 2 minutes.
(§6) At each exposure sample time, a 1.0 ml aliquot of the inoculated 9-decenoic acid suspension was transferred to 9.0 ml of D/E Neutralizing Broth. Additional ten-fold serial dilutions were made in PBDW and plated in duplicate on TSA. All plates were incubated for 48 hours at 37° C. (±2° C.) and visually examined for growth. The plates were enumerated, recorded and log kill determined for each time point.
(§7) The following study controls were conducted: culture purity, neutralizer sterility, initial suspension population, test population, neutralization verification and a negative control using isopropanol. Culture purity was verified by performing a streak plate for isolated colonies of each culture used. All cultures were determined to be pure based on consistent colony morphology typical for the test organism. The neutralizer sterility was confirmed by no growth in an incubated sample. […]

[2] = system: Klebsiella pneumoniae (ATCC 4352)
Protocol: as §1, §2, §3, §4, §5, §6, §7

[3] = system: Pseudomonas aeruginosa (ATCC 15442)
Protocol: as §1, §2, §3, §4, §5, §6, §7

[4] = system: Staphylococcus epidermidis (ATCC 12228)
Protocol: as §1, §2, §3, §4, §5, §6, §7

[5] = 0.01% 9-decenoic acid, pH 4.4, exposure 0.5 min
[6] = 0.01% 9-decenoic acid, pH 4.4, exposure 2 min
[7] = 0.01% 9-decenoic acid, pH 4.4, exposure 5 min
[8] = 0.01% 9-decenoic acid, pH 4.4, exposure 7 min
[9] = 0.01% 9-decenoic acid, pH 4.4, exposure 10 min
[10] = 0.05% 9-decenoic acid, pH 4.1, exposure 0.5 min
[11] = 0.05% 9-decenoic acid, pH 4.1, exposure 2 min
[12] = 0.05% 9-decenoic acid, pH 4.1, exposure 5 min
[13] = 0.05% 9-decenoic acid, pH 4.1, exposure 7 min
[14] = 0.05% 9-decenoic acid, pH 4.1, exposure 10 min
[15] = 0.1% 9-decenoic acid, pH 4.1, exposure 0.5 min
[16] = 0.1% 9-decenoic acid, pH 4.1, exposure 2 min
[17] = 0.1% 9-decenoic acid, pH 4.1, exposure 5 min
[18] = 0.1% 9-decenoic acid, pH 4.1, exposure 7 min
[19] = 0.1% 9-decenoic acid, pH 4.1, exposure 10 min

In the case of `C=CCCCCCCCC(=O)O` [9-decenoic acid], the Log reduction [1, 5] is reported as 1.0 log, the Log reduction [1, 6] is reported as 2.9 log and the Log reduction [1, 7] is reported as over 6.7 log. It also gave a Log reduction [1, 8] of over 6.7 log, a Log reduction [1, 9] of over 6.7 log and a Log reduction [1, 10] of over 6.7 log. The Log reduction [1, 11] was over 6.7 log, the Log reduction [1, 12] was over 6.7 log and the Log reduction [1, 13] was over 6.7 log. For the same compound, the Log reduction [1, 14] was over 6.7 log, the Log reduction [1, 15] was over 6.7 log and the Log reduction [1, 16] was over 6.7 log. The Log reduction [1, 17] was over 6.7 log, the Log reduction [1, 18] was over 6.7 log and the Log reduction [1, 19] was over 6.7 log. For the same compound, the Log reduction [2, 5] was 1.4 log, the Log reduction [2, 6] was over 6.3 log and the Log reduction [2, 7] was over 6.3 log. It also gave a Log reduction [2, 8] of over 6.3 log, a Log reduction [2, 9] of over 6.3 log and a Log reduction [2, 10] of over 6.3 log. It also gave a Log reduction [2, 11] of over 6.3 log, a Log reduction [2, 12] of over 6.3 log and a Log reduction [2, 13] of over 6.3 log. The Log reduction [2, 14] was over 6.3 log, the Log reduction [2, 15] was over 6.3 log and the Log reduction [2, 16] was over 6.3 log. The Log reduction [2, 17] was over 6.3 log, the Log reduction [2, 18] was over 6.3 log and the Log reduction [2, 19] was over 6.3 log. The Log reduction [3, 5] was over 6.1 log, the Log reduction [3, 6] was over 6.1 log and the Log reduction [3, 7] was over 6.1 log. It also gave a Log reduction [3, 8] of over 6.1 log, a Log reduction [3, 9] of over 6.1 log and a Log reduction [3, 10] of over 6.1 log. For the same compound, the Log reduction [3, 11] was over 6.1 log, the Log reduction [3, 12] was over 6.1 log and the Log reduction [3, 13] was over 6.1 log. The Log reduction [3, 14] was over 6.1 log, the Log reduction [3, 15] was over 6.1 log and the Log reduction [3, 16] was over 6.1 log. It also gave a Log reduction [3, 17] of over 6.1 log, a Log reduction [3, 18] of over 6.1 log and a Log reduction [3, 19] of over 6.1 log. The Log reduction [4, 5] was over 5.7 log, the Log reduction [4, 6] was over 5.7 log and the Log reduction [4, 7] was over 5.7 log. The Log reduction [4, 8] was over 5.7 log, the Log reduction [4, 9] was over 5.7 log and the Log reduction [4, 10] was over 5.7 log. For the same compound, the Log reduction [4, 11] was over 5.7 log, the Log reduction [4, 12] was over 5.7 log and the Log reduction [4, 13] was over 5.7 log. It also gave a Log reduction [4, 14] of over 5.7 log, a Log reduction [4, 15] of over 5.7 log and a Log reduction [4, 16] of over 5.7 log. The Log reduction [4, 17] was over 5.7 log, the Log reduction [4, 18] was over 5.7 log and the Log reduction [4, 19] was over 5.7 log.
